Experiment in all cases: ITC
Assay [1] deals with BCL2 3-5-3 (DNA, G4) CGGGCACGGGAAAAAGGGAACGGGAAC
The note with it: K+ 150 mM (KCl); 20 mM Tris, 1 mM EDTA, 30% DMSO, pH 7.2, 25 °C; mode 1 of 3.

Assay [2] concerns hTel22 (DNA, G4) AGGGTTAGGGTTAGGGTTAGGG
The note with it: 20 mM Tris, 1 mM EDTA, 30% DMSO, pH 7.2, 25 °C, mode 1 of 3.

The subject of assay [3] is KRAS 6-4-6 (DNA, G4) GGGCAATATGGGAAAAGGGAAAAAAGGGAA
The note with it: K+ 150 mM (KCl); 20 mM Tris, 1 mM EDTA, 30% DMSO, pH 7.2, 25 °C; mode 1 of 3.

Assay [4] concerns BCL2 3-6-2 (DNA, G4) CGGGCACGGGAAAAAAGGGACGGGAAC
The note with it: K+ 150 mM (KCl); 20 mM Tris, 1 mM EDTA, 30% DMSO, pH 7.2, 25 °C; mode 1 of 3.

Assay [5] relates to KRAS 6-4-4 (DNA, G4) GGGCAATATGGGAAAAGGGAAAAGGGAAAA
To be noted: K+ 150 mM (KCl); 20 mM Tris, 1 mM EDTA, 30% DMSO, pH 7.2, 25 °C; mode 1 of 3.

The record followed here is PMC6173502 (2018).

Take `N=C(N)c1ccc(N=NNc2ccc(C(=N)N)cc2)cc1`: the Ka is 17.5 × 10^7 in assay [1]; 13.7 × 10^7 in assay [2] (K+ 150 mM (KCl)); 18.2 × 10^7 in assay [2] (Na+ 150 mM (NaCl)); 3.85 × 10^7 in assay [3]; 41.5 × 10^7 in assay [4]; 25.5 × 10^7 in assay [5].
